Test [1] in a line: Roundtable assessment of bitterness (scale 0 to 6). Type of test: in vivo. Also on record: key: 0 = none; 1 = trace/faint; 2 = slight; 3 = moderate; 4 = definite; 5 = strong; 6 = extreme. How it is done:
For other sweetness attributes, the solutions were tested by a panel of at least four individuals that are highly-trained in tasting steviol glycoside solutions. The highly-trained panelists used a roundtable methodology to assess each sweetness attribute. To test each solution, the highly-trained panelists dispensed approximately 2 mL of each solution into their own mouths by transfer pipet, dispersed the solution by moving their tongues, and recorded a value for the particular sweetness attribute being tested. Between tasting solutions, the panelists were able to cleanse their palates with water. For each sweetness attribute, the panelist agreed on a descriptive scale with relative intensities assigned for each sweetness attribute and then recorded the values for each sweetness attribute against this. For example, this roundtable assessment of sweetness linger assigned a scale of 0 to 6 with a score of 0 indicating no sweetness linger and a score of 6 indicating extreme sweetness linger. Roundtable assessment of sweetness linger assigned a scale of 0 to 6 with a score of 0 indicating no sweetness linger and a score of 6 indicating extreme sweetness linger (0=none, 1=trace, 2=slight, 3=moderate, 4=definite, 5=strong, 6=extreme). Roundtable assessment of rounded assigned a scale of 0 to 3 with a score of 0 indicating spikey and a score of 3 indicating desirable rounded (0=none, 1=mostly spikey, some rounded, 2=mostly rounded, some spikey, 3=rounded). Roundtable assessment of mouthfeel assigned a scale of 0 to 2 with a score of 0 indicating water and a score of 2 indicating syrupy (0=water, 1=sucrosey, 2=syrupy). Roundtable assessment of bitterness assigned a scale of 0 to 6 with a score of 0 indicating no bitterness and a score of 6 indicating extreme sweetness linger (0=none, 1=trace, 2=slight, 3=moderate, 4=definite, 5=strong, 6=extreme). Roundtable assessment of off tastes assigned a scale of 0 to 6 with a score of 0 indicating no bitterness and a score of 6 indicating extreme off tastes (0=none, 1=trace, 2=slight, 3=moderate, 4=definite, 5=strong, 6=extreme).
A series of assays were carried out to characterize bitterness (0=none, 1=trace/faint, 2=slight, 3=moderate, 4=definite, 5=strong, 6=extreme) of steviol glycoside compositions with sensory modifier compound using the roundtable methodology described in Example 1. […] Solutions of steviol glycosides and sensory modifier compound were prepared at increasing ratios of sensory modifier to steviol glycoside by weight. The steviol glycosides were RebA (4 glycoside groups), RebD (5 glycoside groups), RebM (6 glycoside groups), and OPS1-5(7 glycoside groups) and the sensory modifier compound was monocaffeoylquinic and dicaffeoylquinic acids prepared from yerba mate. The concentration of steviol glycosides was 700 ppm in each solution. The solutions were tested for bitterness.

Test [2] in a line: Roundtable assessment of sweetness linger (scale 0 to 6). Type of test: in vivo. Also on record: key: 0 = none; 1 = trace/faint; 2 = slight; 3 = moderate; 4 = definite; 5 = strong; 6 = extreme. How it is done:
In some aspects, the amount of sensory modifier compound effective to […] can be determined by panel testing with trained panelists. For example, sweetness linger can be determined by the following test: For other sweetness attributes, the solutions were tested by a panel of at least four individuals that are highly-trained in tasting steviol glycoside solutions. The highly-trained panelists used a roundtable methodology to assess each sweetness attribute. To test each solution, the highly-trained panelists dispensed approximately 2 mL of each solution into their own mouths by transfer pipet, dispersed the solution by moving their tongues, and recorded a value for the particular sweetness attribute being tested. Between tasting solutions, the panelists were able to cleanse their palates with water. For each sweetness attribute, the panelist agreed on a descriptive scale with relative intensities assigned for each sweetness attribute and then recorded the values for each sweetness attribute against this. For example, this roundtable assessment of sweetness linger assigned a scale of 0 to 6 with a score of 0 indicating no sweetness linger and a score of 6 indicating extreme sweetness linger. Roundtable assessment of sweetness linger assigned a scale of 0 to 6 with a score of 0 indicating no sweetness linger and a score of 6 indicating extreme sweetness linger (0=none, 1=trace, 2=slight, 3=moderate, 4=definite, 5=strong, 6=extreme). Roundtable assessment of rounded assigned a scale of 0 to 3 with a score of 0 indicating spikey and a score of 3 indicating desirable rounded (0=none, 1=mostly spikey, some rounded, 2=mostly rounded, some spikey, 3=rounded). Roundtable assessment of mouthfeel assigned a scale of 0 to 2 with a score of 0 indicating water and a score of 2 indicating syrupy (0=water, 1=sucrosey, 2=syrupy). Roundtable assessment of bitterness assigned a scale of 0 to 6 with a score of 0 indicating no bitterness and a score of 6 indicating extreme sweetness linger (0=none, 1=trace, 2=slight, 3=moderate, 4=definite, 5=strong, 6=extreme). Roundtable assessment of off tastes assigned a scale of 0 to 6 with a score of 0 indicating no bitterness and a score of 6 indicating extreme off tastes (0=none, 1=trace, 2=slight, 3=moderate, 4=definite, 5=strong, 6=extreme). […] Roundtable assessment of botanical notes assigned a scale of 0 to 5 with a score of 0 indicating no botanical notes and a score of 5 indicating strong (0=none, 1=trace, 2=slight, 3=moderate, 4=definite, 5=strong). Exemplary tests are recorded below in Example 1.
For other sweetness attributes, the solutions were tested by a panel of at least four individuals that are highly-trained in tasting steviol glycoside solutions. The highly-trained panelists used a roundtable methodology to assess each sweetness attribute. To test each solution, the highly-trained panelists dispensed approximately 2 mL of each solution into their own mouths by transfer pipet, dispersed the solution by moving their tongues, and recorded a value for the particular sweetness attribute being tested. Between tasting solutions, the panelists were able to cleanse their palates with water. For each sweetness attribute, the panelist agreed on a descriptive scale with relative intensities assigned for each sweetness attribute and then recorded the values for each sweetness attribute against this. For example, this roundtable assessment of sweetness linger assigned a scale of 0 to 6 with a score of 0 indicating no sweetness linger and a score of 6 indicating extreme sweetness linger. Roundtable assessment of sweetness linger assigned a scale of 0 to 6 with a score of 0 indicating no sweetness linger and a score of 6 indicating extreme sweetness linger (0=none, 1=trace, 2=slight, 3=moderate, 4=definite, 5=strong, 6=extreme). […]

[3] abbreviates: steviol glycoside 700 ppm + yerba mate mono/dicaffeoylquinic acids 270 ppm.
Where [4] appears, read: steviol glycoside 700 ppm + yerba mate mono/dicaffeoylquinic acids 540 ppm.
Setting [5] is: steviol glycoside 700 ppm + yerba mate mono/dicaffeoylquinic acids 810 ppm.
Where [6] appears, read: steviol glycoside 700 ppm, sensory modifier 0 ppm.
Where [7] appears, read: RebM 700 ppm + cichoric acid (tartaric backbone) 772 ppm.
[8] abbreviates: RebM 700 ppm + cichoric acid (tartaric backbone) […].
The mark [9] stands for this setting: RebM 700 ppm + rosmarinic acid 195 ppm.
Setting [10] is: RebM 700 ppm + rosmarinic acid 391 ppm.
The mark [11] stands for this setting: steviol glycoside 700 ppm + yerba mate mono/dicaffeoylquinic acids 236 ppm.
The mark [12] stands for this setting: steviol glycoside 700 ppm + yerba mate mono/dicaffeoylquinic acids 472 ppm.
[13] abbreviates: steviol glycoside 700 ppm + yerba mate mono/dicaffeoylquinic acids 708 ppm.
Setting [14] is: steviol glycoside 700 ppm + yerba mate mono/dicaffeoylquinic acids 630 ppm.
[15] abbreviates: steviol glycoside 700 ppm + yerba mate mono/dicaffeoylquinic acids 946 ppm.
Setting [16] is: steviol glycoside 700 ppm + yerba mate mono/dicaffeoylquinic acids […].

The values that follow come from patent publication US20190223483A1, “SENSORY MODIFIER COMPOUNDS” (CARGILL, INCORPORATED, priority 2017, published 2019).

Where “and” joins values, the source holds several entries; their conditions need not be identical. Identical values can stand only once.

Take `C=C1C[C@@]23CC[C@H]4[C@@](C)(CCC[C@@]4(C)C(=O)O[C@@H]4O[C@H](CO)[C@@H](O)[C@H](O)[C@H]4O[C@@H]4O[C@H](CO)[C@@H](O)[C@H](O)[C@H]4O)[C@@H]2CC[C@]1(O[C@@H]1O[C@H](CO)[C@@H](O)[C@H](O[C@@H]2O[C@H](CO)[C@@H](O)[C@H](O)[C@H]2O)[C@H]1O[C@@H]1O[C@H](CO)[C@@H](O)[C@H](O)[C@H]1O)C3` [RebD, Rebaudioside D]: the Bitterness in test [1] (setting [3]), in test [1] (setting [4]), in test [1] (setting [5]) and in test [1] (setting [6]) was 0 each time. Also, the Sweetness linger in test [2] (setting [3]) is recorded as 3; in test [2] (setting [4]), 2; in test [2] (setting [5]) it was 1; in test [2] (steviol glycoside 700 ppm, about 200 ppm sensory modifier), “reduced to commercially palatable levels”; in test [2] (setting [6]), 3.

For the molecule `C=C1C[C@@]23CC[C@H]4[C@@](C)(CCC[C@@]4(C)C(=O)O[C@@H]4O[C@H](CO)[C@@H](O)[C@H](O[C@@H]5O[C@H](CO)[C@@H](O)[C@H](O)[C@H]5O)[C@H]4O[C@@H]4O[C@H](CO)[C@@H](O)[C@H](O)[C@H]4O)[C@@H]2CC[C@]1(O[C@@H]1O[C@H](CO)[C@@H](O)[C@H](O[C@@H]2O[C@H](CO)[C@@H](O)[C@H](O)[C@H]2O)[C@H]1O[C@@H]1O[C@H](CO)[C@@H](O)[C@H](O)[C@H]1O)C3` [RebM, Rebaudioside M], the Bitterness is listed as 0 in test [1] (setting [7]); 0 in test [1] (setting [8]); 0 in test [1] (setting [9]); 0 in test [1] (setting [10]); “not perceptible” in test [1] (RebM 700 ppm, about 200 ppm sensory modifier and above); “none” in test [1] (quinic, tartaric or 3-(3,4-dihydroxyphenyl)lactic acid backbone modifier above 200 ppm). Further, the Bitterness in test [1] (setting [11]) turned out to be 0; in test [1] (setting [12]) it was 0; in test [1] (setting [13]), 0; in test [1] (setting [6]), 5. Besides, the Sweetness linger in test [1] (Table 16: RebM 700 ppm + yerba mate mono/dicaffeoylquinic acids 236 ppm), in test [1] (Table 16: RebM 700 ppm + yerba mate mono/dicaffeoylquinic acids 300 ppm), in test [1] (Table 16: RebM 700 ppm + yerba mate mono/dicaffeoylquinic acids 400 ppm), in test [1] (Table 16: RebM 700 ppm + yerba mate mono/dicaffeoylquinic acids 472 ppm), in test [1] (Table 16: RebM 700 ppm + yerba mate mono/dicaffeoylquinic acids 500 ppm) and in test [1] (Table 16: RebM 700 ppm + yerba mate mono/dicaffeoylquinic acids 600 ppm) was 0 each time. Moreover, the Sweetness linger in test [1] (Table 16: RebM 700 ppm + yerba mate mono/dicaffeoylquinic acids 700 ppm) is given as 0; in test [1] (Table 16: RebM 700 ppm + yerba mate mono/dicaffeoylquinic acids 708 ppm), 0; in test [1] (Table 16: RebM 700 ppm + yerba mate mono/dicaffeoylquinic acids 800 ppm), 0; in test [1] (Table 16: RebM 700 ppm, sensory modifier 0 ppm), 5; in test [2] (1:1 molar ratio with tartaric acid backbone modifier) it was “no perceptible linger”; in test [2] (1:2 molar ratio with quinic acid backbone modifier) it was “no perceptible linger”. In addition, the Sweetness linger in test [2] (RebM 700 ppm + cichoric acid (tartaric backbone) 514 ppm) is given as 0; in test [2] (setting [7]), 0; in test [2] (setting [8]), 0; in test [2] (setting [9]), 6; in test [2] (setting [10]) it was 3; in test [2] (RebM 700 ppm + rosmarinic acid 586 ppm), 2. The Sweetness linger result in test [2] (RebM 700 ppm, above about 300 ppm quinic backbone modifier) was “not perceptible”; in test [2] (RebM 700 ppm, at or before about 200 ppm quinic backbone modifier), “slight”; in test [2] (setting [11]) it was 2; in test [2] (steviol glycoside 700 ppm + yerba mate mono/dicaffeoylquinic acids 300 ppm) it was 2; in test [2] (steviol glycoside 700 ppm + yerba mate mono/dicaffeoylquinic acids 400 ppm) it was 0; in test [2] (setting [12]), 0. Moreover, the Sweetness linger in test [2] (steviol glycoside 700 ppm + yerba mate mono/dicaffeoylquinic acids 500 ppm) is 0; in test [2] (steviol glycoside 700 ppm + yerba mate mono/dicaffeoylquinic acids 600 ppm), 0; in test [2] (steviol glycoside 700 ppm + yerba mate mono/dicaffeoylquinic acids 700 ppm), 0 and 2; in test [2] (setting [13]), 0; in test [2] (steviol glycoside 700 ppm + yerba mate mono/dicaffeoylquinic acids 800 ppm), 0; in test [2] (setting [6]), 6.

In the case of `C=C1C[C@@]23CC[C@H]4[C@@](C)(CCC[C@@]4(C)C(=O)O[C@@H]4O[C@H](CO)[C@@H](O)[C@H](O)[C@H]4O)[C@@H]2CC[C@]1(O[C@@H]1O[C@H](CO)[C@@H](O)[C@H](O[C@@H]2O[C@H](CO)[C@@H](O)[C@H](O)[C@H]2O)[C@H]1O[C@@H]1O[C@H](CO)[C@@H](O)[C@H](O)[C@H]1O)C3` [RebA, Rebaudioside A], the bitterness score in test [1] (RebA 700 ppm, higher concentrations of sensory modifier) was determined as 3. Besides, the Bitterness in test [1] (setting [14]) is given as 3; in test [1] (setting [15]), 3; in test [1] (setting [16]) it was 5; in test [1] (setting [6]), 6. Moreover, the Sweetness linger entry in test [2] (setting [14]), in test [2] (setting [15]), in test [2] (setting [16]) and in test [2] (setting [6]) was “Not observed” each time.
